Here are results for 32 compounds from US20170253607A1, “LONG-ACTING HIV PROTEASE INHIBITOR” (Shionogi & Co., Ltd., priority 2014, published 2017).

The target of the assay is HIV-1 PR (Human immunodeficiency virus type 1 group M subtype B, UniProt P04585). Description: HIV-protease inhibitory activity assay (FRET peptide substrate). The class given is biochemical. To be noted: Test Example 1. In a few lines:
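Compounds were preincubated with HIV-1 PR (0.83 ng) at room temperature in pH 4.8 NaAc buffer (0.5 M NaCl, EDTA, DTT, Tween 20), then HiLyte Fluor 488/QXL 520 FRET peptide (2 μmol/L final) was added for 60 min. Fluorescence was read at 485/535 nm, and IC50 was fitted by four-parameter logistic regression.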
The compound `COc1ccc(S(=O)(=O)N(CC(C)C)CC(O)C(Cc2ccc(NCc3ccc(-c4sc5c(c4C(=O)O)CC(C)(C)CC5)cn3)cc2)NC(=O)OC2COC3(C)OCCC23)cc1` (centres unmarked) [Compound I-290] showed an IC50 of 2.08 nM. That is a single-digit nanomolar value. In turn, `COc1ccc(S(=O)(=O)N(CC(C)C)CC(O)C(Cc2ccc(NCc3ccc(-c4sc5c(c4C(=O)O)CC(C)(C)CC5)c(F)c3)cc2)NC(=O)OC2COC3(C)OCCC23)cc1` (centres unmarked) [Compound I-291] gave a half-maximal inhibitory concentration (IC50) of 3.54 nM. `COc1ccc(S(=O)(=O)N(CC(C)C)CC(O)C(Cc2ccc(NCc3ccc(OC)c(-c4sc5c(c4C(=O)O)CC(C)(C)CC5)c3)cc2)NC(=O)OC2COC3(C)OCCC23)cc1` (centres unmarked) [Compound I-293] gave an IC50 of 1.9 nM. Compound `COc1ccc(S(=O)(=O)N(CC(C)C)CC(O)C(Cc2ccc(NCc3cc(-c4sc5c(c4C(=O)O)CC(C)(C)CC5)ccc3OC(F)(F)F)cc2)NC(=O)OC2COC3(C)OCCC23)cc1` (centres unmarked) [Compound I-294] returned an IC50 of 3.92 nM. `COc1ccc(S(=O)(=O)N(CC(C)C)CC(O)C(Cc2ccc(NCc3csc(-c4sc5c(c4C(=O)O)CC(C)(C)CC5)n3)cc2)NC(=O)OC2COC3(C)OCCC23)cc1` (centres unmarked) [Compound I-295]: 2.19 nM corresponded to half-maximal inhibition (IC50). As to `COc1ccc(S(=O)(=O)N(CC(C)C)CC(O)C(Cc2ccc(NCc3cc(F)cc(-c4sc5c(c4C(=O)O)CC(C)(C)CC5)c3)cc2)NC(=O)OC2COC3(C)OCCC23)cc1` (centres unmarked) [Compound I-296], the IC50 was 1.91 nM. This IC50 and that of the compound before are within 1.5-fold of each other. As for `COc1ccc(S(=O)(=O)N(CC(C)C)CC(O)C(Cc2ccc(N(Cc3ccccc3)Cc3ccccc3-c3sc4c(c3C(=O)O)CC(C)(C)CC4)cc2)NC(=O)OC2COC3(C)OCCC23)cc1` (centres unmarked) [Compound I-299], the figure is 16.5 nM.

`COc1ccc(S(=O)(=O)N(CC(C)C)CC(O)C(Cc2ccc(N3CCc4c(-c5sc6c(c5C(=O)O)CC(C)(C)CC6)cccc43)cc2)NC(=O)OC2COC3(C)OCCC23)cc1` (centres unmarked) [Compound I-300] gave a concentration for half-maximal inhibition (IC50) of 4.78 nM. This IC50 is about 3.5-fold lower than that of the compound before. As for `COc1ccc(S(=O)(=O)N(CC(C)C)CC(O)C(Cc2ccc(OCc3ccccc3-c3ccc(-n4nc5c(c4C(=O)O)CC(C)(C)CC5)cc3)cc2)NC(=O)OC2COC3(C)OCCC23)cc1` (centres unmarked) [Compound I-301], the IC50 worked out at 3.14 nM.

In the case of `COc1ccc(S(=O)(=O)N(CC(C)C)CC(O)C(Cc2ccc(OCc3ccccc3-c3ccc(-n4nc(C(=O)O)c5c4CCC(C)(C)C5)cc3)cc2)NC(=O)OC2COC3(C)OCCC23)cc1` (centres unmarked) [Compound I-302], the IC50 came out at 2.28 nM.

On to `COc1ccc(S(=O)(=O)N(CC(C)C)CC(O)C(Cc2ccc(OCc3ccnc(C(=O)O)c3)cc2)NC(=O)OC2COC3(C)OCCC23)cc1` (centres unmarked) [Compound I-306], for which inhibition was half-maximal at 1.89 nM (IC50). With `COc1ccc(S(=O)(=O)N(CC(C)C)CC(O)C(Cc2ccc(OCc3cc(Cc4ccc(F)cc4)cnc3C(=O)O)cc2)NC(=O)OC2COC3(C)OCCC23)cc1` (centres unmarked) [Compound I-308], the IC50 turned out to be 1.91 nM.

`COc1ccc(S(=O)(=O)N(CC(C)C)CC(O)C(Cc2ccc(OCCn3ncc(C(=O)O)c3OC(C)C)cc2)NC(=O)OC2COC3(C)OCCC23)cc1` (centres unmarked) [Compound I-309] showed a concentration for half-maximal inhibition (IC50) of 2 nM. `COc1ccc(S(=O)(=O)N(CC(C)C)CC(O)C(Cc2ccc(OC3CCC(C(C)(C)C(=O)O)CC3)cc2)NC(=O)OC2COC3(C)OCCC23)cc1` (centres unmarked) [Compound I-310] showed an IC50 of 1.96 nM. With `COc1ccc(S(=O)(=O)N(CC(C)C)CC(O)C(Cc2ccc(OCc3ccccc3OCC(=O)O)cc2)NC(=O)OC2COC3(C)OCCC23)cc1` (centres unmarked) [Compound I-311], the IC50 was 1.88 nM. With `COc1ccc(S(=O)(=O)N(CC(C)C)CC(O)C(Cc2ccc(NCc3ccc4scc(C(=O)O)c4c3)cc2)NC(=O)OC2COC3(C)OCCC23)cc1` (centres unmarked) [Compound I-314], the IC50 came out at 1.93 nM. As for `COc1ccc(S(=O)(=O)N(CC(C)C)CC(O)C(Cc2ccc(NCc3ccccc3OCC(=O)O)cc2)NC(=O)OC2COC3(C)OCCC23)cc1` (centres unmarked) [Compound I-315], the IC50 was determined as 1.98 nM. As for `COc1ccc(S(=O)(=O)N(CC(C)C)CC(O)C(Cc2ccc(NCc3ccc(C(=O)O)cc3)cc2)NC(=O)OC2COC3(C)OCCC23)cc1` (centres unmarked) [Compound I-316], the figure is 1.85 nM; as for `COc1ccc(S(=O)(=O)N(CC(C)C)CC(O)C(Cc2ccc(NCc3cc(C(=O)O)c(C)o3)cc2)NC(=O)OC2COC3(C)OCCC23)cc1` (centres unmarked) [Compound I-317], 1.86 nM. For the compound `COc1ccc(S(=O)(=O)N(CC(C)C)CC(O)C(Cc2ccc(NCc3c(C(=O)O)[nH]c4ccc(Cl)cc34)cc2)NC(=O)OC2COC3(C)OCCC23)cc1` (centres unmarked) [Compound I-319], the midpoint of inhibition, the IC50, lay at 2.09 nM. The compound `COc1ccc(S(=O)(=O)N(CC(C)C)CC(O)C(Cc2ccc(NCc3cnn4ccc(C(=O)O)nc34)cc2)NC(=O)OC2COC3(C)OCCC23)cc1` (centres unmarked) [Compound I-320] displayed an IC50 of 1.95 nM. In turn, `COc1ccc(S(=O)(=O)N(CC(C)C)CC(O)C(Cc2ccc(NCc3ccc(OCC(=O)O)cc3)cc2)NC(=O)OC2COC3(C)OCCC23)cc1` (centres unmarked) [Compound I-321] came in with an IC50 of 1.9 nM. In turn, `COc1ccc(S(=O)(=O)N(CC(C)C)CC(O)C(Cc2ccc(NCc3ccc(-c4sc5c(c4C(=O)O)CC(C)(C)CC5)c4ccccc34)cc2)NC(=O)OC2COC3(C)OCCC23)cc1` (centres unmarked) [Compound I-322] registered an IC50 of 10.5 nM. `COc1ccc(S(=O)(=O)N(CC(C)C)CC(O)C(Cc2ccc(NCc3ncn4cc(-c5sc6c(c5C(=O)O)CC(C)(C)CC6)ccc34)cc2)NC(=O)OC2COC3(C)OCCC23)cc1` (centres unmarked) [Compound I-323] came in with an IC50 of 2.41 nM. `COc1ccc(S(=O)(=O)N(CC(C)C)CC(O)C(Cc2ccc(OC3CC4CCC(C3)N4c3ccc(C#N)cc3-c3sc4c(c3C(=O)O)CC(C)(C)CC4)cc2)NC(=O)OC2COC3(C)OCCC23)cc1` (centres unmarked) [Compound I-324] showed an IC50 of 19.6 nM. In the case of `COc1ccc(S(=O)(=O)N(CC(C)C)CC(O)C(Cc2ccc(OCC3CCN(c4ccc(C#N)cc4-c4sc5c(c4C(=O)O)CC(C)(C)CC5)CC3)cc2)NC(=O)OC2COC3(C)OCCC23)cc1` (centres unmarked) [Compound I-325], 31.7 nM corresponded to half-maximal inhibition (IC50). On to `COc1ccc(S(=O)(=O)N(CC(C)C)CC(O)C(Cc2ccc(OCC3CCCN3c3ccc(C#N)cc3-c3sc4c(c3C(=O)O)CC(C)(C)CC4)cc2)NC(=O)OC2COC3(C)OCCC23)cc1` (centres unmarked) [Compound I-326], for which half-maximal inhibition (IC50) was put at 9.19 nM. Compound `COc1ccc(S(=O)(=O)N(CC(C)C)CC(O)C(Cc2ccc(OCC3CCCN(c4ccc(C#N)cc4-c4sc5c(c4C(=O)O)CC(C)(C)CC5)C3)cc2)NC(=O)OC2COC3(C)OCCC23)cc1` (centres unmarked) [Compound I-327] came in with an IC50 of 10.4 nM. As for `COc1ccc(S(=O)(=O)N(CC(C)C)CC(O)C(Cc2ccc(OCC3CCCN(c4ccc(C#N)cc4-c4sc5c(c4C(=O)O)CC(C)(C)CC5)C3)cc2)NC(=O)OC2COC3(C)OCCC23)cc1` (centres unmarked) [Compound I-328], the figure is 12.8 nM; as for `COc1ccc(S(=O)(=O)N(CC(C)C)CC(O)C(Cc2ccc(OCC3CN(c4ccc(C#N)cc4-c4sc5c(c4C(=O)O)CC(C)(C)CC5)C3)cc2)NC(=O)OC2COC3(C)OCCC23)cc1` (centres unmarked) [Compound I-329], 7.67 nM; as for `COc1ccc(S(=O)(=O)N(CC(C)C)CC(O)C(Cc2ccc(OCC3CCC(Nc4ccc(C#N)cc4-c4sc5c(c4C(=O)O)CC(C)(C)CC5)CC3)cc2)NC(=O)OC2COC3(C)OCCC23)cc1` (centres unmarked) [Compound I-330], 40.6 nM. `COc1ccc(S(=O)(=O)N(CC(C)C)CC(O)C(Cc2ccc(OC3CCCN(c4ccc(C#N)cc4-c4sc5c(c4C(=O)O)CC(C)(C)CC5)C3)cc2)NC(=O)OC2COC3(C)OCCC23)cc1` (centres unmarked) [Compound I-331] had an IC50 of 12.3 nM. Compared with the last compound, the IC50 is about 3.3-fold lower.
